The values below come from PubChem BioAssay (NCI).

Some test systems named below: SF-295 CNS; OVCAR-8 ovarian; MOLT-4 leukemia; UO-31 renal; IGROV1 ovarian; HOP-92 NSCLC; SK-MEL-2 melanoma; OVCAR-4 ovarian; SK-MEL-28 melanoma; RPMI-8226 leukemia.
Common to all, as to assay: NCI-60 cell line screen, 48 h

The structures appear in SMILES notation.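 Five compound concentrations were applied to cells in 96-well plates for 48 hours; endpoints were derived by simple linear interpolation of the resulting dose-response curve. Abbreviation: GI50, concentration required for 50% inhibition of growth. TGI: total growth inhibition.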

Turning to `O=c1c2cc(Br)cc(Br)c2nc(CCCl)n1-c1ccc(O)c([N+](=O)[O-])c1`, the TGI was determined as 45 µM in the test on SF-295 CNS; 41.6 µM in the test on OVCAR-8 ovarian; 50.5 µM with MOLT-4 leukemia; 33.9 µM with UO-31 renal; 40.4 µM in the test on IGROV1 ovarian; 52.2 µM with HOP-92 NSCLC. Besides, the TGI in the test with SK-MEL-2 melanoma is 34.6 µM; in the test with OVCAR-4 ovarian, 29 µM; in the test with SK-MEL-28 melanoma it was 35.4 µM; in the test on RPMI-8226 leukemia, 56.1 µM.

For `C=C1C(=O)OC2C1C(OC(=O)/C(C)=C/C)CC(O)(CCl)C1C(O)C=C(C)C21O` (stereo not given), the TGI is > 100 µM in the test with SF-295 CNS; 37.2 µM in the test with OVCAR-8 ovarian; 20.6 µM in the test with MOLT-4 leukemia; 33.9 µM in the test with UO-31 renal; 31.6 µM in the test on IGROV1 ovarian; 24.4 µM in the test on HOP-92 NSCLC. Besides, the TGI in the test on SK-MEL-2 melanoma was > 50.3 µM; in the test on OVCAR-4 ovarian, 30 µM; in the test on SK-MEL-28 melanoma, 35 µM; with RPMI-8226 leukemia, 30.6 µM.

With `O=C1CC[C@H](N2Cc3c(OCc4ccc(CN5CCOCC5)cc4)cccc3C2=O)C(=O)N1`, the GI50 with SF-295 CNS, in the test on OVCAR-8 ovarian, in the test on MOLT-4 leukemia, in the test on UO-31 renal, with IGROV1 ovarian and with HOP-92 NSCLC was > 100 µM throughout. In addition, the GI50 in the test on SK-MEL-2 melanoma, in the test with OVCAR-4 ovarian, in the test with SK-MEL-28 melanoma and in the test with RPMI-8226 leukemia was > 100 µM throughout. The TGI with SF-295 CNS, in the test with OVCAR-8 ovarian, with MOLT-4 leukemia, in the test with UO-31 renal, in the test on IGROV1 ovarian and in the test on HOP-92 NSCLC was > 100 µM throughout. In addition, the TGI in the test on SK-MEL-2 melanoma, with OVCAR-4 ovarian, in the test on SK-MEL-28 melanoma and in the test on RPMI-8226 leukemia was > 100 µM throughout.

For the compound `Cc1cc(C(=O)Nc2n[nH]c3ccccc23)n[nH]1`, the GI50 in the test on SF-295 CNS is > 100 µM; in the test on OVCAR-8 ovarian it was > 100 µM; with MOLT-4 leukemia, > 100 µM; with UO-31 renal, 50.4 µM; with IGROV1 ovarian, 32.7 µM; with HOP-92 NSCLC it was > 100 µM. In addition, the GI50 in the test with SK-MEL-2 melanoma, in the test with OVCAR-4 ovarian, in the test with SK-MEL-28 melanoma and in the test on RPMI-8226 leukemia was > 100 µM in each case. In addition, the TGI in the test on SF-295 CNS, in the test on OVCAR-8 ovarian, in the test with MOLT-4 leukemia, in the test with UO-31 renal, in the test with IGROV1 ovarian and with HOP-92 NSCLC was > 100 µM throughout. Also, the TGI in the test with SK-MEL-2 melanoma, in the test with OVCAR-4 ovarian, in the test with SK-MEL-28 melanoma and with RPMI-8226 leukemia was > 100 µM in each case.

With `C1OC1CN1CCN(CC2CO2)CC1` (stereo not given), the TGI with SF-295 CNS was > 100 µM; in the test on OVCAR-8 ovarian it was > 100 µM; with MOLT-4 leukemia, > 62.4 µM; in the test on UO-31 renal, > 100 µM; in the test with IGROV1 ovarian, > 100 µM; with HOP-92 NSCLC it was > 100 µM. Besides, the TGI with SK-MEL-2 melanoma, in the test with OVCAR-4 ovarian, with SK-MEL-28 melanoma and in the test with RPMI-8226 leukemia was > 100 µM throughout.

Consider `Cc1ccc(C(=O)NCCCOc2ccc(N3C(N)=NC(N)=NC3(C)C)cc2Cl)cc1S(=O)(=O)F`, for which the GI50 was > 100 µM with SF-295 CNS; 85.8 µM in the test on OVCAR-8 ovarian; > 100 µM in the test on MOLT-4 leukemia; > 100 µM in the test on UO-31 renal; 4.42 µM with IGROV1 ovarian; > 100 µM in the test on HOP-92 NSCLC. Moreover, the GI50 in the test with SK-MEL-2 melanoma is > 100 µM; in the test on OVCAR-4 ovarian it was 81.2 µM; in the test with SK-MEL-28 melanoma, 74.7 µM; in the test on RPMI-8226 leukemia, 24.7 µM. Further, the TGI with SF-295 CNS, in the test with OVCAR-8 ovarian, with MOLT-4 leukemia, with UO-31 renal, in the test with IGROV1 ovarian and in the test on HOP-92 NSCLC was > 100 µM in each case. For the same compound, the TGI in the test with SK-MEL-2 melanoma, in the test with OVCAR-4 ovarian, with SK-MEL-28 melanoma and in the test on RPMI-8226 leukemia was > 100 µM throughout.

Consider `O=C1Nc2cc(-c3cccc(O)c3)ccc2/C1=C/c1ccc[nH]1`, for which the GI50 with SF-295 CNS is 2.34 µM; in the test with OVCAR-8 ovarian, 3.45 µM; with MOLT-4 leukemia, 1.07 µM; in the test on UO-31 renal it was 0.359 µM; in the test on IGROV1 ovarian, 1.01 µM; in the test with HOP-92 NSCLC it was 1.9 µM. Besides, the GI50 is 1.48 µM in the test on SK-MEL-2 melanoma, 0.305 µM with OVCAR-4 ovarian, 1.73 µM in the test on SK-MEL-28 melanoma and 0.588 µM in the test with RPMI-8226 leukemia. Further, the TGI stood at 5.23 µM in the test with SF-295 CNS; 49.2 µM in the test with OVCAR-8 ovarian; 33.6 µM in the test on MOLT-4 leukemia; 3.78 µM with UO-31 renal; 10.1 µM with IGROV1 ovarian; 6.26 µM in the test with HOP-92 NSCLC. Further, the TGI in the test with SK-MEL-2 melanoma stood at 6.77 µM; with OVCAR-4 ovarian, 16.2 µM; in the test on SK-MEL-28 melanoma, 3.59 µM; in the test on RPMI-8226 leukemia, 5.83 µM.

Turning to `Cc1ccc(C(=O)c2sc3nc4c(cc3c2N)CCCC4)c(C)c1`, the GI50 is 0.291 µM in the test on SF-295 CNS; 0.807 µM with OVCAR-8 ovarian; 0.563 µM in the test on MOLT-4 leukemia; 0.766 µM in the test on UO-31 renal; 1.23 µM in the test with IGROV1 ovarian; 3.36 µM in the test with HOP-92 NSCLC. Moreover, the GI50 is 0.429 µM in the test on SK-MEL-2 melanoma, 1.97 µM with OVCAR-4 ovarian, 2.15 µM in the test on SK-MEL-28 melanoma and 0.406 µM in the test on RPMI-8226 leukemia. Besides, the TGI in the test with SF-295 CNS was 98.9 µM; in the test with OVCAR-8 ovarian, > 100 µM; in the test on MOLT-4 leukemia it was > 100 µM; in the test on UO-31 renal, > 100 µM; in the test on IGROV1 ovarian, > 100 µM; in the test with HOP-92 NSCLC it was 87.6 µM. Besides, the TGI is > 71.2 µM with SK-MEL-2 melanoma, > 100 µM in the test with OVCAR-4 ovarian, > 100 µM with SK-MEL-28 melanoma and 6.97 µM with RPMI-8226 leukemia.

For `CN(C)CCC(/C=C/c1ccccc1)=N\Nc1ccc(Cl)c(Cl)c1`, the TGI in the test on SF-295 CNS came to 11.2 µM; with OVCAR-8 ovarian, 7.8 µM; in the test on MOLT-4 leukemia, 6.63 µM; with UO-31 renal, 3.41 µM; in the test on IGROV1 ovarian it was 10.1 µM; in the test on HOP-92 NSCLC, 4.4 µM. In addition, the TGI in the test with SK-MEL-2 melanoma turned out to be 6.31 µM; with OVCAR-4 ovarian, 10.8 µM; in the test on SK-MEL-28 melanoma, 22.6 µM; with RPMI-8226 leukemia, 9.53 µM.
